This is an account of results in patent US20210238225A1, “PEPTIDOMIMETIC INHIBITORS OF THE PEPTIDYL-PROLYL CIS/TRANS ISOMERASE (PIN1)” (DANA-FARBER CANCER INSTITUTE, INC., priority 2018, published 2021).

Where two headings read alike, the source gives them in different places. Non-standard residues stand in square brackets, D forms with d. Residues, ends and D or L forms follow the SMILES beside them. *: point of attachment. Ala(4-thiazolyl) = N[C@@H](Cc1cscn1)C(=O)O; Phe(4-F) = N[C@@H](Cc1ccc(F)cc1)C(=O)O; 2Nal = N[C@@H](Cc1ccc2ccccc2c1)C(=O)O; NH(4-Me-benzyl) = Cc1ccc(CN*)cc1; NMeF = CN[C@@H](Cc1ccccc1)C(=O)O; Cit = NC(=O)NCCC[C@H](N)C(=O)O; Pip = O=C(O)[C@@H]1CCCCN1; Piperidide = C1CCN(*)CC1; NHcBu = C1CC(N*)C1; NHtBu = CC(C)(C)N*; ClAc = O=C(CCl)*; NHcPr = C1CC1N*

The target of experiment [1] is Pin1 (GST-Pin1) (Homo sapiens, UniProt Q13526). The experiment is described as follows: Fluorescence polarization (FP) assay, binding to Pin1. As to conditions: competition with fluorescein-labeled peptide probe, 12 hours pre-incubation at 4° C., Kenakin Ki equation.
In experiment [2] the target is Pin1 (Homo sapiens, UniProt Q13526). Briefly: Cellular target engagement, live cell biotin competition assay in TNBC MDA-MB-231 cells. The class given is cell-based. The arrangement: endogenous in cells; host or cells: MDA-MB-231. As to conditions: TNBC MDA-MB-231 cells; for Cellular Target Engagement?: 5 hours treatment, concentration under E7; for Cellular Target Engagement? concentration stated for complete engagement: read with the E6 line. How it is done: TNBC MDA-MB-231 cells were plated in 10 cm plates with 2.5 million cells per plate in 6 mL of media. The day after plating, cells were treated with the indicated concentrations of compound 18 for 5 hours. The cells were washed 2× with 0.9% NaCl (1 mL per 10 cm plate), and collected by scraping with a cell scraper. Cells were lysed in lysis buffer (50 mM Hepes pH 7.5, 150 mM NaCl, 1 mM EDTA, 10% v/v glycerol, 0.5% v/v […], protease inhibitors (Roche)) using 210 μL of cell lysis buffer per 10 cm plate of cells. After clarifying by centrifugation (14,000 rpm for 15 min at 4° C.), 5 μL of each lysate sample was combined with 5 μL of 2× LDS+10% β-mercaptoethanol, boiled for 5 minutes, and set aside for the input loading control (later to be loaded directly in the gel). Then, 200 μL of each lysate was then incubated with 1 μM of compound 2-32 (biotin probe compound) for 1 hour at 4° C. Lysates were then incubated with streptavidin agarose resin (30 μL of 1:1 beads: lysis buffer slurry) (Thermo Scientific™, cat. #20349) for 2 hours at 4° C. Beads were washed 4 times with 500 μL of washing buffer (50 mM Hepes, pH7.5, 10 mM NaCl, 1 mM EDTA, 10% glycerol), then pelleted by centrifugation and dried. The beads were then boiled at 95° C. for 5 minutes in 30 μL of 2× LDS+10% β-mercaptoethanol. Lysates were probed for specified proteins by western blotting using the Bolt system (Life Technologies™).
Sequence of Pin1 (Q13526 whole entry): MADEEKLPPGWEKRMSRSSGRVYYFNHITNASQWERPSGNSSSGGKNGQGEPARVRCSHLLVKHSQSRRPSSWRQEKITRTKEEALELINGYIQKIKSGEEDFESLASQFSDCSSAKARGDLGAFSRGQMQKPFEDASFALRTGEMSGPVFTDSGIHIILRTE

Sequence of Pin1 (GST-Pin1) (Q13526 whole entry): as above

Turning to `NC(=O)[C@H](Cc1ccc(O)cc1)NC(=O)[C@H](Cc1ccc2ccccc2c1)NC(=O)[C@@H]1CCCCN1C(=O)[C@H](CCC(=O)O)NC(=O)CCl` [Compound 2-6, (S)-5-((S)-2-(((S)-1-(((S)-1-Amino-3-(4-hydroxyphenyl)-1-oxopropan-2-yl)amino)-3-(naphthalen-2-yl)-1-oxopropan-2-yl)carbamoyl)piperidin-1-yl)-4-(2-chloroacetamido)-5-oxopentanoic acid] (ClAc-E[Pip][2Nal]Y-NH2), in experiment [1] (read-out: Ki, μM (FP Assay)), the Ki stood at 0.28 µM. In addition, the “Cellular Target Engagement?” value in experiment [2] is listed as “No”.
As to `Cc1ccc(CNC(=O)[C@H](CCCNC(N)=O)NC(=O)[C@H](Cc2c[nH]c3ccccc23)NC(=O)[C@@H]2CCCCN2C(=O)[C@H](Cc2ccccc2)N(C)C(=O)CCl)cc1` [Compound 11, (S)—N—((S)-3-(1H-indol-3-yl)-1-(((S)-1-((4-methylbenzyl)amino)-1-oxo-5-ureidopentan-2-yl)amino)-1-oxopropan-2-yl)-1-(N-(2-chloroacetyl)-N-methyl-L-phenylalanyl)piperidine-2-carboxamide] (ClAc-[NMeF][Pip]W[Cit]-{NH(4-Me-benzyl)}), the inhibition constant Ki in experiment [1] (read-out: Ki, μM (FP Assay)) turned out to be 0.01 µM. For the same molecule, in experiment [2], the “Cellular Target Engagement?” value is recorded as “Yes-” and the “Cellular Target Engagement? concentration stated for complete engagement” value was “at 5 μM”.
For the molecule `COC(=O)CC[C@H](NC(=O)CCl)C(=O)N1CCCC[C@H]1C(=O)N[C@@H](Cc1c[nH]c2ccccc12)C(=O)N[C@@H](Cc1ccc(F)cc1)C(=O)NCc1ccc(C)cc1` [Compound 11-3, Methyl (S)-4-(2-chloroacetamido)-5-((S)-2-(((S)-1-(((S)-3-(4-fluorophenyl)-1-((4-methylbenzyl)amino)-1-oxopropan-2-yl)amino)-3-(1H-indol-3-yl)-1-oxopropan-2-yl)carbamoyl)piperidin-1-yl)-5-oxopentanoate] (ClAc-E(OMe)[Pip]W[Phe(4-F)]-{NH(4-Me-benzyl)}), the Ki in experiment [1] (Ki, μM (FP Assay)) is 0.19 µM. Moreover, in experiment [2], the “Cellular Target Engagement?” value is given as “Yes-Complete” and the “Cellular Target Engagement? concentration stated for complete engagement” value is recorded as “at 15 μM”.
`COC(=O)CC[C@H](NC(=O)CCl)C(=O)N1CCCC[C@H]1C(=O)N[C@@H](Cc1c[nH]c2ccccc12)C(=O)N[C@@H](CCCNC(N)=O)C(=O)NCc1ccc(C)cc1` [Compound 11-4, Methyl (S)-5-((S)-2-(((S)-3-(1H-indol-3-yl)-1-(((S)-1-((4-methylbenzyl)amino)-1-oxo-5-ureidopentan-2-yl)amino)-1-oxopropan-2-yl)carbamoyl)piperidin-1-yl)-4-(2-chloroacetamido)-5-oxopentanoate] (ClAc-E(OMe)[Pip]W[Cit]-{NH(4-Me-benzyl)}) returned a Ki in experiment [1] (Ki, μM (FP Assay)) of 0.03 µM. Further, the “Cellular Target Engagement?” value in experiment [2] is “No”.
On to `Cc1ccc(CNC(=O)[C@H](Cc2ccc(F)cc2)NC(=O)[C@H](Cc2c[nH]c3ccccc23)NC(=O)[C@@H]2CCCCN2C(=O)[C@H](CCC(=O)O)NC(=O)CCl)cc1` [Compound 11-5, (S)-4-(2-chloroacetamido)-5-((S)-2-(((S)-1-(((S)-3-(4-fluorophenyl)-1-((4-methylbenzyl)amino)-1-oxopropan-2-yl)amino)-3-(1H-indol-3-yl)-1-oxopropan-2-yl)carbamoyl)piperidin-1-yl)-5-oxopentanoic acid] (ClAc-E[Pip]W[Phe(4-F)]-{NH(4-Me-benzyl)}), for which, in experiment [1] (read-out: Ki, μM (FP Assay)), the Ki was determined as 0.13 µM. Also, in experiment [2], the “Cellular Target Engagement?” value was “No”.
Turning to `Cc1ccc(CNC(=O)[C@H](CCCNC(N)=O)NC(=O)[C@H](Cc2c[nH]c3ccccc23)NC(=O)[C@@H]2CCCCN2C(=O)[C@H](CCC(=O)O)NC(=O)CCl)cc1` [Compound 11-6, (S)-5-((S)-2-(((S)-3-(1H-indol-3-yl)-1-(((S)-1-((4-methylbenzyl)amino)-1-oxo-5-ureidopentan-2-yl)amino)-1-oxopropan-2-yl)carbamoyl)piperidin-1-yl)-4-(2-chloroacetamido)-5-oxopentanoic acid] (ClAc-E[Pip]W[Cit]-{NH(4-Me-benzyl)}), the Ki in experiment [1] (read-out: Ki, μM (FP Assay)) stood at 0.01 µM. Further, the “Cellular Target Engagement?” value in experiment [2] is “No”.
`COC(=O)CC[C@H](NC(=O)CCl)C(=O)N1CCCC[C@H]1C(=O)N[C@@H](Cc1c[nH]c2ccccc12)C(=O)N[C@@H](Cc1ccc(F)cc1)C(=O)NC(C)(C)C` [Compound 11-18, Methyl (S)-5-((S)-2-(((S)-1-(((S)-1-(tert-butylamino)-3-(4-fluorophenyl)-1-oxopropan-2-yl)amino)-3-(1H-indol-3-yl)-1-oxopropan-2-yl)carbamoyl)piperidin-1-yl)-4-(2-chloroacetamido)-5-oxopentanoate] (ClAc-E(OMe)[Pip]W[Phe(4-F)]-NHtBu): the affinity in experiment [1] (Ki, μM (FP Assay)) corresponds to a Ki of 0.134 µM. Moreover, the “Cellular Target Engagement?” value in experiment [2] was “No”.
The like results for `COC(=O)CC[C@H](NC(=O)CCl)C(=O)N1CCCC[C@H]1C(=O)N[C@@H](Cc1c[nH]c2ccccc12)C(=O)N[C@@H](Cc1ccc(F)cc1)C(=O)NC1CCC1` [Compound 11-19, Methyl (S)-4-(2-chloroacetamido)-5-((S)-2-(((S)-1-(((S)-1-(cyclobutylamino)-3-(4-fluorophenyl)-1-oxopropan-2-yl)amino)-3-(1H-indol-3-yl)-1-oxopropan-2-yl)carbamoyl)piperidin-1-yl)-5-oxopentanoate] (ClAc-E(OMe)[Pip]W[Phe(4-F)]-NHcBu) were, in that order, 0.146 µM and “No”.
`COC(=O)CC[C@H](NC(=O)CCl)C(=O)N1CCCC[C@H]1C(=O)N[C@@H](Cc1c[nH]c2ccccc12)C(=O)N[C@@H](Cc1cscn1)C(=O)NCc1ccc(C)cc1` [Compound 11-28, Methyl (S)-5-((S)-2-(((S)-3-(1H-indol-3-yl)-1-(((S)-1-((4-methylbenzyl)amino)-1-oxo-3-(thiazol-4-yl)propan-2-yl)amino)-1-oxopropan-2-yl)carbamoyl)piperidin-1-yl)-4-(2-chloroacetamido)-5-oxopentanoate] (ClAc-E(OMe)[Pip]W[Ala(4-thiazolyl)]-{NH(4-Me-benzyl)}): in experiment [1] (Ki, μM (FP Assay)), the Ki worked out at 0.099 µM. Also, the “Cellular Target Engagement?” value in experiment [2] is “No”.
On to `NC(=O)NCCC[C@H](NC(=O)[C@H](Cc1c[nH]c2ccccc12)NC(=O)[C@@H]1CCCCN1C(=O)[C@H](Cc1ccccc1)NC(=O)CCl)C(=O)NC1CC1` [Compound 11-38, (S)-1-((2-chloroacetyl)-L-phenylalanyl)-N—((S)-1-(((S)-1-(cyclopropylamino)-1-oxo-5-ureidopentan-2-yl)amino)-3-(1H-indol-3-yl)-1-oxopropan-2-yl)piperidine-2-carboxamide] (ClAc-F[Pip]W[Cit]-NHcPr), for which the Ki in experiment [1] (read-out: Ki, μM (FP Assay)) was determined as 0.018 µM. In addition, the “Cellular Target Engagement?” value in experiment [2] is “No”.
In the case of `NC(=O)NCCC[C@H](NC(=O)[C@H](Cc1c[nH]c2ccccc12)NC(=O)[C@@H]1CCCCN1C(=O)[C@H](Cc1ccccc1)NC(=O)CCl)C(=O)N1CCCCC1` [Compound 11-39, (S)—N—((S)-3-(1H-indol-3-yl)-1-oxo-1-(((S)-1-oxo-1-(piperidin-1-yl)-5-ureidopentan-2-yl)amino)propan-2-yl)-1-((2-chloroacetyl)-L-phenylalanyl)piperidine-2-carboxamide] (ClAc-F[Pip]W[Cit]-Piperidide), the Ki in experiment [1] (read-out: Ki, μM (FP Assay)) was determined as 0.017 µM. Also, the “Cellular Target Engagement?” value in experiment [2] is given as “No”.
Consider `CCOC(=O)[C@H](CCCNC(N)=O)NC(=O)[C@H](Cc1c[nH]c2ccccc12)NC(=O)[C@@H]1CCCCN1C(=O)[C@H](Cc1ccccc1)N(C)C(C)=O` [Compound 18-1, Ethyl (S)-2-((S)-2-((S)-1-(N-acetyl-N-methyl-L-phenylalanyl)piperidine-2-carboxamido)-3-(1H-indol-3-yl)propanamido)-5-ureidopentanoate] (Ac-[NMeF][Pip]W[Cit]-OEt), for which, in experiment [1] (read-out: Ki, μM (FP Assay)), the inhibition constant (Ki) was 1.9 µM. Moreover, in experiment [2], the “Cellular Target Engagement?” value was “No”.
